Read-outs that look alike come from different tables or passages of the source.
Experiments:
[1] = molecular target: T1, Recombinant full-length human PDE2A protein (Homo sapiens, UniProt O00408); assay: In vitro PDE2 phosphodiesterase inhibitory activity (fluorescence polarization, Transcreener AMP2/GMP2); type: biochemical
T1 construct: Recombinant full-length human PDE2A protein; GST (N); host or cells: insect Sf9 cells (baculovirus)
Method: Experiment Objective: Determining the concentration of AMP/GMP produced in the reaction system by way of detecting the AlexaFluor 633 fluorescent dye substituted on AMP/GMP antibody by fluorescence polarization assay, and thereby to calculate the IC50 value of PDE2 phosphodiesterase inhibition by the test compound. Experimental Materials: Detecting buffer solution: 10 mM Tris-HCl, pH 7.5, 5 mM MgCl2, 0.01% Brij 35, 1 mM DTT, and 1% DMSO. Enzyme: Recombinant full-length human PDE2A protein with an N-terminal GST-tag expressed in insect Sf9 cells by baculovirus Substrate: 1 μM cGMP Detection System: Transcreener® AMP^2/GMP^2 antibody, AMP2/GMP2 AlexaFluor 633 fluorescent dye Experimental Operation:
The enzyme solution was prepared by using the freshly prepared buffer solution, and then was added into the reaction wells. The DMSO solution of the test compound was added via Echo550, a nanoliter-scale contactless acoustic liquid transferring system, and then pre-incubated at room temperature for 10 minutes. The substrate (1 μLM cGMP) was added to initiate the reaction at room temperature for one hour. The detection system (Transcreener® AMP^2/GMP^2 antibody, AMP2/GMP2 AlexaFluor 633 fluorescent dye) was then added, and the reaction was conducted at room temperature for 90 minutes. Fluorescence polarization was then detected by using Ex/Em 620/688.
The intensity of fluorescence polarization was converted to nM concentration by the AMP/GMP standard curve, and then calculate the relative enzyme activity inhibition relative to the DMSO blank. The IC50 values and curves were calculated by using the Prism software package (GraphPad Software, San Diego Calif., USA)

TNF-α = assay: In vitro induction of TNF-α in rat blood by LPS (ELISA); type: cell-based; settings: test compound final concentration 100 μM, 5 hours, read-out: Rate of TNFα inhibition
Method: Experiment Objective: Determining the impact of the compounds on induction of TNF-α in rat blood by LPS in vitro, and evaluating the effect of the compounds on inhibiting induction of TNF-α in rat blood by LPS.
Sprague Dawley rats (male, 210-260 g, 8-10 weeks old, Shanghai SLAC)
Rat TNF-alpha Quantikine ELISA Kit (R&D, # SRTA00)
The test compound solutions were prepared at a concentration of 1 mM. 40 μl of each of the solutions was added into a 48-well cell culture plate (at the final concentration of 100 μM). After the rat was anesthetized with isoflurane, the blood was collected from the heart (heparin for anticoagulation). The blood was added into the 48-well plate containing the test compound, in the amount of 320 μL per well. The 48-well plate was placed into a cell incubator, and then taken out after 30 minutes of incubation. Then, 40 μL of LPS solution (100 μg/ml) was added and mixed. The 48-well plate was placed into the incubator for further incubation. After 5 hours, the 48-well plate was taken out and the blood sample was transferred to a 1.5 mL centrifuge tube, followed by centrifugation in a centrifuge (4,500 rpm, 4° C., 5 minutes). The supernatant was separated and the plasma was obtained. […] In the next day, the TNF-α level of the plasma samples was determined by using the R&D ELISA kit in accordance with the instructions.

[2] = human PDE2A, substrate 1 μM cGMP, fluorescence polarization, read-out: PDE2 phosphodiesterase inhibitory activity

T1 sequence (O00408 whole entry): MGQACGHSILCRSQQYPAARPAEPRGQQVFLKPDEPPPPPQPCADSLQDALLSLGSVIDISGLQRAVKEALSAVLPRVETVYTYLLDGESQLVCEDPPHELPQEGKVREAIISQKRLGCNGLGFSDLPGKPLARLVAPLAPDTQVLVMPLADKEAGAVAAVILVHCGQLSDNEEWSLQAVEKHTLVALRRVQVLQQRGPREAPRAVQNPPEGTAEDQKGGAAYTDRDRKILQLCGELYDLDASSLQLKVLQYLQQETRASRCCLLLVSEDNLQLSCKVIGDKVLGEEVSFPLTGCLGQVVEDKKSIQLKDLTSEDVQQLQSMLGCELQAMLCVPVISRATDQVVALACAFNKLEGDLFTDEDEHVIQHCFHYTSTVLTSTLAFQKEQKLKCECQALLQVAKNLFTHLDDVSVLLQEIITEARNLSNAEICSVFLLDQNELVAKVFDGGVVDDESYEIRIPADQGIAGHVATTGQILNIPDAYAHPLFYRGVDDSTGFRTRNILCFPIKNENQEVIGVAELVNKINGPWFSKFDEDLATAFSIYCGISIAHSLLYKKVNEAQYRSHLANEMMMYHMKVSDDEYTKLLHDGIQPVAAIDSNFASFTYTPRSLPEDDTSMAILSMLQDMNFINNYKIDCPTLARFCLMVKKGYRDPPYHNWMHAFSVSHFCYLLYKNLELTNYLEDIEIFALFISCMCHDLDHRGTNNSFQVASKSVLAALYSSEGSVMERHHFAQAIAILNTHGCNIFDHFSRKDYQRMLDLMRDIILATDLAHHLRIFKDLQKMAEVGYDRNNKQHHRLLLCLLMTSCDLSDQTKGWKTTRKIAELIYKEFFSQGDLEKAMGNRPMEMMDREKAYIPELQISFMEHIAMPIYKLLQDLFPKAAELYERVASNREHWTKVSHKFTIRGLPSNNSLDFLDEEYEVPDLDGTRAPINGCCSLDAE

`CCC1(CCn2c(=O)c3c(ncn3C)n(C)c2=O)CCOC1` (single isomer, unassigned) [Example 12 Isomer 2, 1-(2-(3-Ethyltetrahydro-furan-3-yl)ethyl)-3,7-dimethyl-1H-purin-2,6-(3H,7H)-dione] showed an IC50 [1, 2] of 10 to 50 µM.

`Cn1cnc2c1c(=O)n(CC1(C)COC1)c(=O)n2C` [Example 3, 3,7-Dimethyl-1-((3-methyloxetan-3-yl)methyl)-1H-purin-2,6(3H, 7H)-dione] gave an IC50 [1] of 10 to 50 µM and an inhibition at 100 µM (TNF-α) of 60 to 80%.

`CCC1(Cn2c(=O)c3c(ncn3C)n(C)c2=O)COC1` [Example 4, 1-((3-Ethyloxetan-3-yl)methyl)3,7-dimethyl-1H-purin-2,6(3H,7H)-dione] showed an IC50 [1, 2] of 10 to 50 µM.

With `CCC1OCC1CCn1c(=O)c2c(ncn2C)n(C)c1=O` (centres unmarked) [Example 5, 1-(2-(2-Ethyloxetan-3-yl)ethyl)-3,7-dimethyl-1H-purin-2,6(3H,7H)-dione] the IC50 [1, 2] was 10 to 50 µM.

With `Cn1cnc2c1c(=O)n(CC1(C)CCOCC1)c(=O)n2C` [Example 11 Isomer 1, 3,7-Dimethyl-1-((4-methyltetrahydro-2H-pyran-4-yl)methyl)-1H-purin-2,6-(3H,7H)-dione] the IC50 [1, 2] was 10 to 50 µM.

Molecule `CCC1(Cn2c(=O)c3c(ncn3C)n(C)c2=O)CCOCC1` [Example 12 Isomer 1, 1-((4-Ethyltetrahydro-2H-pyran-4-yl)methyl)-3,7-dimethyl-1H-purin-2,6-(3H,7H)-dione] has an IC50 [1, 2] of 10 to 50 µM.

Molecule `C[C@H]1CC(CCn2c(=O)c3c(ncn3C)n(C)c2=O)C[C@H](C)O1` (stereo partly drawn) [Example 14, 1-[2-((2S,6S)-2,6-dimethyltetrahydro-2H-pyran-4-yl)-ethyl]-3,7-dimethyl-1H-2,6(3H,7H)-dione] has an IC50 [1, 2] of 10 to 50 µM.

Work on `CCC1COCCC1CCn1c(=O)c2c(ncn2C)n(C)c1=O` (centres unmarked) [Example 15, 1-(2-(3-Ethyltetrahydro-2H-pyran-4-yl)ethyl)-3,7-dimethyl-1H-purin-2,6-(3H,7H)-dione] yielded an IC50 [1, 2] of 10 to 50 µM.

For `CCC1CC(CCn2c(=O)c3c(ncn3C)n(C)c2=O)CCO1` (centres unmarked) [Example 16], the IC50 [1, 2] was 10 to 50 µM.

`Cn1cnc2c1c(=O)n(CCN1CCOCC1)c(=O)n2C` [Example 17, 3,7-Dimethyl-1-(2-morpholinoethyl)-purin-2,6-dione] was tested, and the inhibition at 100 µM (TNF-α) was under 60%.

`COC1CCC(Cn2c(=O)c3c(ncn3C)n(C)c2=O)CC1` (centres unmarked) [Example 18, 1((-4-Methoxycyclohexyl)methyl)-3,7-dimethyl-1H-purin-2,6-(3H,7H)-dione] was tested, and the IC50 [1, 2] was 10 to 50 µM.

`C[C@@H]1CC(CCn2c(=O)c3c(ncn3CC(F)(F)F)n(C)c2=O)C[C@@H](C)O1` (stereo partly drawn) [Example 20, 1-(2-((2R,6R)-2,6-dimethyltetrahydro-2H-pyran-4-yl)ethyl)-3-methyl-7-(2,2,2-trifluoroethyl)-1H-purin-2,6 (3H,7H)-dione] was tested, and the IC50 [1, 2] was 10 to 50 µM.

`CC(C)n1cnc2c1c(=O)n(CCC1C[C@@H](C)O[C@H](C)C1)c(=O)n2C` (stereo partly drawn) [Example 21, 1-(2-((2R,6R)-2,6-dimethyltetrahydro-2H-pyran-4-yl)ethyl)yl-7-isopropyl-3-methyl-1H-purin-2,6(3H,7H)-dione] was tested, and the IC50 [1, 2] was 10 to 50 µM.

Molecule `C[C@@H]1CC(CCn2c(=O)c3c(ncn3CC3CC3)n(C)c2=O)C[C@@H](C)O1` (some centres unmarked) [Example 23] has an IC50 [1, 2] of 10 to 50 µM.

`CC(C)Cn1cnc2c1c(=O)n(CCC1C[C@@H](C)O[C@H](C)C1)c(=O)n2C` (stereo partly drawn) [Example 26, 1-(2-((2R,6R)-2,6-dimethyltetrahydro-2H-pyran-4-yl)ethyl)-7-isobutyl-3-methyl-1H-purin-2,6(3H, 7H)-dione] was tested, and the IC50 [1, 2] was 10 to 50 µM.

For `Cn1c(=O)n(CC2(C)COC2)c(=O)c2c1cnn2CC1CC1` [Example 33, 1-(Cyclopropylmethyl)-4-methyl-6-((3-methyloxetan-3-yl)methyl)-pyrazolo[4,3-d]pyrimidin-5,7-dione], the IC50 [1, 2] was 10 to 50 µM.

— patent US10618898B2, “Hydroxyl purine compounds and use thereof” (GUANGDONG RAYNOVENT BIOTECH CO., LTD., priority 2015, dated 2020)
